Active and inactive are the calls of the source. How the calls were made is not given here.

In the test the test system is HeLa cell count decrease. In words: decrease in HeLa cell numbers, dose-response curve, cell enumeration, 50% inhibitory concentration (AID 1117347).
In general, IC50 refers to the concentration that inhibits the measured activity by half. Take `Cc1cc(=O)c2c(O)c3c(O)cc(=O)c4c3c3c(cc(O)c1c23)C(C)(C)C=4O`: the 50% inhibitory concentration (IC50) is 1 µM.
With `CC[C@@]1(O)C(=O)OCc2c1cc1n(c2=O)Cc2cc3c(CN(C)C)c(O)ccc3nc2-1`, the IC50 is 0.009 µM.
To `COc1ccc(Cc2nccc3cc(OC)c(OC)cc23)cc1OC` belongs > 10 µM (inactive).
As to `CCCN(CCC)C(=O)C(CCC(=O)OCCCN1CCN(CCOC(=O)Cc2c(C)n(C(=O)c3ccc(Cl)cc3)c3ccc(OC)cc23)CC1)NC(=O)c1ccccc1` (centres undefined), the IC50 is 5.48 µM (inactive).
To `COc1cc(NCc2ccc3nc(N)nc(N)c3c2C)cc(OC)c1OC` belongs 3.81 µM; to `Cc1cc(CC(C)CC(C)(C)C)n(O)c(=O)c1` (centres undefined), 0.133 µM.
The result for `CC[n+]1c(-c2ccccc2)c2cc(N)ccc2c2ccc(N)cc21` reads > 10 µM (inactive); that for `CN1CC[C@H](c2c(O)cc(O)c3c(=O)cc(-c4ccccc4Cl)oc23)[C@H](O)C1`, 0.0212 µM; that for `C=CC(=O)Nc1cc2c(Nc3ccc(F)c(Cl)c3)ncnc2cc1OCCCN1CCOCC1`, 2.09 µM.
To `COC(=O)Nc1nc2ccc(Sc3ccccc3)cc2[nH]1` belongs 0.0097 µM.
Consider `COc1cccc2c1C(=O)c1c(O)c3c(c(O)c1C2=O)C[C@@](O)(C(=O)CO)CC3OC1CC(N2CCOC(OC)C2)C(O)C(C)O1` (some centres undefined), for which the 50% inhibitory concentration (IC50) was 0.00468 µM.
The result for `CCCCCCCCCCCCCCCC[N+](C)(C)Cc1ccccc1` reads > 10 µM (inactive).
To `CCN(CC)CCNC(=O)c1c(C)[nH]c(/C=C2\C(=O)Nc3ccc(F)cc32)c1C` belongs 1.28 µM.
With `COc1cc2c(c(OC)c1OC)-c1ccc(OC)c(=O)cc1[C@@H](NC(C)=O)CC2`, the IC50 is 0.00188 µM.
To `N[C@@H](Cc1ccc(N(CCCl)CCCl)cc1)C(=O)O` belongs 0.39 µM; to `COc1cc(NC(C)CCCN)c2ncccc2c1` (centres undefined), > 10 µM (inactive).
To `Cc1ccc([N+](=O)[O-])[c]2c1[O][Hg]2` belongs 0.385 µM; to `CCC(C)n1ncn(-c2ccc(N3CCN(c4ccc(OC[C@H]5CO[C@](Cn6cncn6)(c6ccc(Cl)cc6Cl)O5)cc4)CC3)cc2)c1=O` (some centres undefined), > 10 µM (inactive); to `CCN(CC)CCOc1ccc(/C(=C(\Cl)c2ccccc2)c2ccccc2)cc1`, > 10 µM (inactive).
To `CCCCc1ccc2nc(NC(=O)OC)[nH]c2c1` belongs 0.00566 µM.
In the case of `CC(C)c1c(C(=O)Nc2ccccc2)c(-c2ccccc2)c(-c2ccc(F)cc2)n1CC[C@@H](O)C[C@@H](O)CC(=O)O`, the IC50 is > 10 µM (inactive).
The result for `CCC(COC(=O)c1cc(OC)c(OC)c(OC)c1)(c1ccccc1)N(C)C` (centres undefined) reads > 10 µM (inactive); that for `NC(N)=NN=C(/C=C/c1ccc([N+](=O)[O-])o1)/C=C/c1ccc([N+](=O)[O-])o1`, > 10 µM (inactive); that for `Nc1nc(F)nc2c1ncn2[C@@H]1O[C@H](CO)[C@@H](O)[C@@H]1O`, > 10 µM (inactive).
The result for `CC(C)OC(=O)OCOP(=O)(CO[C@H](C)Cn1cnc2c(N)ncnc21)OCOC(=O)OC(C)C` reads 0.289 µM; that for `CCCCCCCCCCCCCCCCCCNC(=O)OC1CCN(C(=O)OC[C@H](COC(=O)N(Cc2cccc[n+]2CC)C(=O)c2ccccc2OC)OC)CC1`, 6.14 µM (inactive).
The result for `CCN(CCCCOC(=O)c1ccc(OC)c(OC)c1)C(C)Cc1ccc(OC)cc1` (centres undefined) reads > 10 µM (inactive); that for `Cc1nc2ccc(CN(C)c3ccc(C(=O)N[C@@H](CCC(=O)O)C(=O)O)s3)cc2c(=O)[nH]1`, > 10 µM (inactive); that for `CC[C@H](C)C(=O)O[C@H]1C[C@@H](C)C=C2C=C[C@H](C)[C@H](CC[C@@H]3C[C@@H](O)CC(=O)O3)[C@H]21`, > 10 µM (inactive).
`CO[C@@]12[C@H](COC(N)=O)C3=C(C(=O)C(C)=C(N)C3=O)N1C[C@@H]1N[C@@H]12`: the half-inhibitory concentration (IC50) is 0.0773 µM.
As to `CC(=O)[C@]1(O)Cc2c(O)c3c(c(O)c2[C@@H](O[C@H]2C[C@H](N)[C@H](O)[C@H](C)O2)C1)C(=O)c1ccccc1C3=O`, the IC50 was 0.0142 µM.
To `CC(=O)N(O)CCCCCNC(=O)CCC(=O)N(O)CCCCCNC(=O)CCC(=O)N(O)CCCCCN` belongs > 10 µM (inactive); to `Cc1c(C)c2c(c(C)c1O)CCC(C)(COc1ccc(CC3SC(=O)NC3=O)cc1)O2` (centres undefined), > 10 µM (inactive).
With `CC(=O)Oc1ccc(C2(c3ccc(OC(C)=O)cc3)Oc3ccccc3NC2=O)cc1`, the IC50 is 5.75 µM (inactive).
To `CCCNCC(O)COc1ccccc1C(=O)CCc1ccccc1` (centres undefined) belongs > 10 µM (inactive); to `O=c1[nH]c(=O)n([C@H]2C[C@H](O)[C@@H](CO)O2)cc1Br`, > 10 µM (inactive).
As to `O=C1C(=O)c2ccccc2C(O)=C1C1CCC(c2ccc(Cl)cc2)CC1` (centres undefined), the IC50 was > 10 µM (inactive).
The result for `O=Cc1ccc(O)c(O)c1O` reads > 10 µM (inactive).
As to `COC(=O)[C@H]1[C@H]2C[C@@H]3c4[nH]c5cc(OC)ccc5c4CCN3C[C@H]2C[C@@H](OC(=O)/C=C/c2ccc(O)c(OC)c2)[C@@H]1OC`, the IC50 was > 10 µM (inactive).
The result for `CN(C)c1ccc2nc3ccc(=[N+](C)C)cc-3sc2c1` reads > 10 µM (inactive).
Turning to `O=C(CCBr)N1CCN(C(=O)CCBr)CC1`, the IC50 is > 10 µM (inactive).
The result for `Cc1nc(N)nc(N)c1-c1ccc(Cl)c(Cl)c1` reads 1.01 µM; that for `CC(=O)Nc1ccn(C2COC(COC(=O)c3ccccc3)O2)c(=O)n1` (centres undefined), 0.281 µM.
For `O=C(O)c1ccc(-n2nc(-c3ccccc3O)nc2-c2ccccc2O)cc1`, the IC50 is 5.68 µM (inactive).
To `CCN(CC)CCOc1ccc(C(O)(Cc2ccc(Cl)cc2)c2ccc(C)cc2)cc1` (centres undefined) belongs > 10 µM (inactive); to `O=C(CCl)c1ccc(Cl)cc1Cl`, 0.35 µM.
To `CCCCCCCCCCCCCCCCNc1ccc(C(=O)O)cc1` belongs > 10 µM (inactive); to `CC(C)(C)C(=O)OCOP(=O)(COCCn1cnc2c(N)ncnc21)OCOC(=O)C(C)(C)C`, 0.134 µM.
To `CC[C@H]1CN2CCc3cc(OC)c(OC)cc3[C@@H]2C[C@@H]1C[C@H]1NCCc2cc(OC)c(OC)cc21` belongs 0.0327 µM; to `COC(=O)Nc1nc2ccc(S(=O)c3ccccc3)cc2[nH]1` (centres undefined), 0.258 µM; to `CN1CCCC(CC2c3ccccc3Sc3ccccc32)C1` (centres undefined), > 10 µM (inactive).
For `O=C(Nc1ccc(Br)cc1)c1cc(Br)cc(Br)c1O`, the IC50 was > 10 µM (inactive).
To `COc1ccc(-c2nc3ccc(C4=NNC(=O)CC4C)cc3[nH]2)cc1` (centres undefined) belongs 7.23 µM (inactive).
To `O=C(O)CN(CCN(CC(=O)O)CC(=O)O)CCN(CC(=O)O)CC(=O)O` belongs > 10 µM (inactive); to `CC(C)=CCOc1ccc(/C=C/C(=O)c2ccc(OCC=C(C)C)cc2OCC(=O)O)cc1`, > 10 µM (inactive).
The result for `CCCCCCCCCCCCCCCC[N+](C)(C)CCN(Cc1ccc(OC)cc1)c1ncccn1` reads 0.349 µM; that for `CN(Cc1cnc2nc(N)nc(N)c2n1)c1ccc(C(=O)N[C@@H](CCC(=O)O)C(=O)O)cc1`, > 10 µM (inactive).
`CCN(CC)CCCC(C)Nc1c2ccc(Cl)cc2nc2ccc(OC)cc12` (centres undefined): the IC50 is 1.33 µM.
To `Cc1nc(Nc2ncc(C(=O)Nc3c(C)cccc3Cl)s2)cc(N2CCN(CCO)CC2)n1` belongs 0.875 µM.

The record behind these values is PubChem BioAssay AID1117347 (Cheminformatics & Chemogenomics Research Group (CCRG), …, 2015).
